26 compounds from patent publication US8759334B2, “Compounds useful for the treatment of metabolic and inflammatory diseases” (Galapagos NV, priority 2011, dated 2014) can be followed below.

Assay [1] deals with T1, GPR43 (Homo sapiens, UniProt O15552).
T1 construct: expressed in transfected cells
T1 sequence (O15552 1-330): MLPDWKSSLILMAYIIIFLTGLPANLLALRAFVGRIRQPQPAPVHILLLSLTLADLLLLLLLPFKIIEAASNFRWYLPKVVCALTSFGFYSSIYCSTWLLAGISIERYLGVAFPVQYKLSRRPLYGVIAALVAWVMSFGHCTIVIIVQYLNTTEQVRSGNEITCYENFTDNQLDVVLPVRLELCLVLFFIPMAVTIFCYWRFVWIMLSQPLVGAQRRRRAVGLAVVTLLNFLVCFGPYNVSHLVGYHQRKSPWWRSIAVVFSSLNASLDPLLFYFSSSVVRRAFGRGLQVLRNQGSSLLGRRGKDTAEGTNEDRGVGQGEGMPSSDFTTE
Put plainly: Calcium mobilization assay with probenecid. It is filed as cell-based. The following applies: GPR43 stably expressing cells; triggered with sodium acetate at EC80; 2.5 mM probenecid; read-out: GPR43 assay with probenicid IC50. In short, it runs like this: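 Cells stably expressing GPR43 plated overnight at 37 °C, then loaded 2 h with Calcium 4 dye plus 2.5 mM probenecid. […]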
Background: Calcium assays in cells follow changes in intracellular calcium, usually with a dye or a luminescent sensor.

Assay [2] has as its target T1, GPR43. Put plainly: Calcium mobilization assay without probenecid. It is filed as cell-based. To be noted: GPR43 stably expressing cells, triggered with sodium acetate at EC80, read-out: GPR43 assay without probenicid IC50. As to the method:
The following assay can be used for determination of GPR43 activation. The assay measures intracellular calcium release induced by activation of GPR43. On day 1, GPR43 stably expressing cells were detached with mild trypsinization (Trypsin, 0.25% with EDTA 4Na, 5× diluted in PBS) centrifuged at 1000 rpm for 5 min and resuspended at 6.000 cells/25 μL medium (DMEM supplemented with 10% FBS, 10 μg/mL puromycin and 1% Pen/Strep). The cells were distributed in poly-D-lysine coated 384 well plates (black with clear bottom, 25 μL/well) and incubated overnight at 37° C. 10% CO2. On day 2, 25 μL of a fluorescent Ca^2+ indicator (Calcium 4 assay; Molecular Devices) was added on top of the cells and incubated for 2 h at 37° C. Subsequently, compounds at increasing concentration (10 μL/well) were added to the plate and incubated for 15 min at 37° C. Finally the cells were triggered with sodium acetate at EC80 concentration (concentration which gives 80% of the activity of the GPR43) and the Ca-flux was measured simultaneously to the trigger injection on a fluorescence plate reader (FlexStation3), this measures the antagonist activity of the compounds. To measure agonist activity of the compounds, compound was added to the well and the Ca-flux was measured simultaneously to the injection of compound.

pIC50: −log10 of the molar value.

Broadly, the pIC50 is −log10 of the IC50, conventionally taken in molar units. Take `CC1(C(=O)NCc2ccc(Cl)cc2)CCN1C(=O)Oc1ccc(Cl)cc1` (stereo not drawn) [Compound 2, 2-(4-Chloro-benzylcarbamoyl)-2-methyl-azetidine-1-carboxylic acid 4-chloro-phenyl ester]: the pIC50 at GPR43 [1] and at GPR43 [2] was below 6.00 each time.
`CC1(C(=O)Nc2ccc(Cl)cc2)CCN1C(=O)Cc1ccc(Cl)cc1Cl` (stereo not drawn) [Compound 4, 1-[2-(2,4-Dichloro-phenyl)-acetyl]-2-methyl-azetidine-2-carboxylic acid (4-chloro-phenyl)-amide]: the pIC50 on GPR43 [1] and on GPR43 [2] was below 6.00 each time.
In the case of `Cc1cc(C)cc(CC(=O)N2CCC2(C)C(=O)N(C)Cc2cccc(Cl)c2)c1` (stereo not drawn) [Compound 5, 1-[2-(3,5-Dimethyl-phenyl)-acetyl]-2-methyl-azetidine-2-carboxylic acid (3-chloro-benzyl)-methyl-amide], the pIC50 at GPR43 [1] and at GPR43 [2] was below 6.00 throughout.
`Cc1ccc(CN(C)C(=O)C2(C)CCN2C(=O)Cc2cc(C)cc(C)c2)cc1` (stereo not drawn) [Compound 6, 1-[2-(3,5-Dimethyl-phenyl)-acetyl]-2-methyl-azetidine-2-carboxylic acid methyl-(4-methyl-benzyl)-amide]: the negative logarithm of the IC50 (pIC50) on GPR43 [1] was below 6.00; on GPR43 [2], 6.00 to 6.30.
For `Cc1cc(C)cc(CC(=O)N2CCC2(C)C(=O)N(C)Cc2ccc(C(F)(F)F)cc2)c1` (stereo not drawn) [Compound 7, 1-[2-(3,5-Dimethyl-phenyl)-acetyl]-2-methyl-azetidine-2-carboxylic acid methyl-(4-trifluoromethyl-benzyl)-amide], in that order: 6.30 to 7.00 and 6.30 to 7.00.
For `CN(Cc1ccc(Cl)cc1)C(=O)C1(C)CCN1C(=O)Cc1ccccc1Cl` (stereo not drawn) [Compound 9, 1-[2-(2-Chloro-phenyl)-acetyl]-2-methyl-azetidine-2-carboxylic acid (4-chloro-benzyl)-methyl-amide], in that order: below 6.00 and below 6.00.
For `CN(Cc1ccc(Cl)cc1)C(=O)C1(C)CCN1C(=O)Cc1cccc(Cl)c1` (stereo not drawn) [Compound 10, 1-[2-(3-Chloro-phenyl)-acetyl]-2-methyl-azetidine-2-carboxylic acid (4-chloro-benzyl)-methyl-amide], in that order: below 6.00 and below 6.00.
Take `CN(Cc1ccc(Cl)cc1)C(=O)C1(C)CCN1C(=O)Cc1ccc(Cl)cc1` (stereo not drawn) [Compound 11]: the pIC50 on GPR43 [1] and at GPR43 [2] was below 6.00 each time.
In the case of `CN(Cc1ccc(Cl)cc1)C(=O)C1(C)CCN1C(=O)Cc1ccc(F)c(F)c1` (stereo not drawn) [Compound 12, 1-[2-(3,4-Difluoro-phenyl)-acetyl]-2-methyl-azetidine-2-carboxylic acid (4-chloro-benzyl)-methyl-amide], the pIC50 on GPR43 [1] and on GPR43 [2] was below 6.00 each time.
Turning to `CN(Cc1ccc(Cl)cc1)C(=O)C1(C)CCN1C(=O)Cc1ccc(-c2ccc(F)cc2)cc1` (stereo not drawn) [Compound 15, 1-[2-(4′-Fluoro-biphenyl-4-yl)-acetyl]-2-methyl-azetidine-2-carboxylic acid (4-chloro-benzyl)-methyl-amide], the pIC50 at GPR43 [1] and on GPR43 [2] was below 6.00 throughout.
As to `CN(Cc1ccc(Cl)cc1)C(=O)C1(C)CCN1C(=O)Cc1ccccc1OCc1ccccc1` (stereo not drawn) [Compound 16, 1-[2-(2-Benzyloxy-phenyl)-acetyl]-2-methyl-azetidine-2-carboxylic acid (4-chloro-benzyl)-methyl-amide], the pIC50 on GPR43 [1] and on GPR43 [2] was below 6.00 each time.
For the compound `CN(Cc1ccc(Cl)cc1)C(=O)C1(C)CCN1C(=O)Cc1ccccc1I` (stereo not drawn) [Compound 17, 1-[2-(2-Iodo-phenyl)-acetyl]-2-methyl-azetidine-2-carboxylic acid (4-chloro-benzyl)-methyl-amide], the pIC50 at GPR43 [1] and on GPR43 [2] was below 6.00 each time.
Consider `CN(Cc1ccc(Cl)cc1)C(=O)C1(C)CCN1C(=O)Cc1ccc(Cl)c(Cl)c1` (stereo not drawn) [Compound 18, 1-[2-(3,4-Dichloro-phenyl)-acetyl]-2-methyl-azetidine-2-carboxylic acid (4-chloro-benzyl)-methyl-amide], for which the pIC50 on GPR43 [1] and at GPR43 [2] was below 6.00 throughout.
For the compound `CN(Cc1ccc(Cl)cc1)C(=O)C1(C)CCN1C(=O)Cc1ccc(-c2ccccc2)cc1` (stereo not drawn) [Compound 20, 1-(2-Biphenyl-4-yl-acetyl)-2-methyl-azetidine-2-carboxylic acid (4-chloro-benzyl)-methyl-amide], the pIC50 on GPR43 [1] and on GPR43 [2] was below 6.00 each time.
`CN(Cc1ccc(Cl)cc1)C(=O)C1(C)CCN1C(=O)Cc1ccc(-c2cccc(Cl)c2)cc1` (stereo not drawn) [Compound 21, 1-[2-(3′-Chloro-biphenyl-4-yl)-acetyl]-2-methyl-azetidine-2-carboxylic acid (4-chloro-benzyl)-methyl-amide]: the pIC50 at GPR43 [1] and on GPR43 [2] was below 6.00 throughout.
As for `CN(Cc1ccc(Cl)cc1)C(=O)C1(C)CCN1C(=O)Cc1ccc(-c2cccc(C#N)c2)cc1` (stereo not drawn) [Compound 22, 1-[2-(3′-Cyano-biphenyl-4-yl)-acetyl]-2-methyl-azetidine-2-carboxylic acid (4-chloro-benzyl)-methyl-amide], the pIC50 at GPR43 [1] and at GPR43 [2] was below 6.00 in each case.
With `COc1ccc(-c2ccc(CC(=O)N3CCC3(C)C(=O)N(C)Cc3ccc(Cl)cc3)cc2)cc1` (stereo not drawn) [Compound 23, 1-[2-(4′-Methoxy-biphenyl-4-yl)-acetyl]-2-methyl-azetidine-2-carboxylic acid (4-chloro-benzyl)-methyl-amide], the pIC50 on GPR43 [1] and on GPR43 [2] was below 6.00 each time.
For the compound `CN(Cc1ccc(Cl)cc1)C(=O)C1(C)CCN1C(=O)Cc1ccc(-c2ccc(C#N)cc2)cc1` (stereo not drawn) [Compound 24, 1-[2-(4′-Cyano-biphenyl-4-yl)-acetyl]-2-methyl-azetidine-2-carboxylic acid (4-chloro-benzyl)-methyl-amide], the pIC50 on GPR43 [1] and at GPR43 [2] was below 6.00 in each case.
As to `Cc1ccccc1-c1ccc(CC(=O)N2CCC2(C)C(=O)N(C)Cc2ccc(Cl)cc2)cc1` (stereo not drawn) [Compound 25, 2-Methyl-1-[2-(2′-methyl-biphenyl-4-yl)-acetyl]-azetidine-2-carboxylic acid (4-chloro-benzyl)-methyl-amide], the pIC50 on GPR43 [1] and at GPR43 [2] was below 6.00 each time.
Take `COC(=O)c1cccc(-c2ccc(CC(=O)N3CCC3(C)C(=O)N(C)Cc3ccc(Cl)cc3)cc2)c1` (stereo not drawn) [Compound 26, methyl 4′-(2-(2-((4-chlorobenzyl)(methyl)carbamoyl)-2-methylazetidin-1-yl)-2-oxoethyl)biphenyl-3-carboxylate]: the pIC50 on GPR43 [1] and at GPR43 [2] was below 6.00 throughout.
With `CN(Cc1ccc(Cl)cc1)C(=O)C1(C)CCN1C(=O)Cc1cccc(-c2ccccc2)c1` (stereo not drawn) [Compound 27, 1-(2-Biphenyl-3-yl-acetyl)-2-methyl-azetidine-2-carboxylic acid (4-chloro-benzyl)-methyl-amide], the pIC50 on GPR43 [1] and on GPR43 [2] was below 6.00 throughout.
In the case of `CN(Cc1ccc(Cl)cc1)C(=O)C1(C)CCN1C(=O)Cc1cccc(-c2ccccc2C(F)(F)F)c1` (stereo not drawn) [Compound 28, 2-Methyl-1-[2-(2′-trifluoromethyl-biphenyl-3-yl)-acetyl]-azetidine-2-carboxylic acid (4-chloro-benzyl)-methyl-amide], the pIC50 on GPR43 [1] and on GPR43 [2] was below 6.00 each time.
Consider `CN(Cc1ccc(Cl)cc1)C(=O)C1(C)CCN1C(=O)Cc1cccc(-c2cccc(Cl)c2)c1` (stereo not drawn) [Compound 29, 1-[2-(3′-Chloro-biphenyl-3-yl)-acetyl]-2-methyl-azetidine-2-carboxylic acid (4-chloro-benzyl)-methyl-amide], for which the pIC50 on GPR43 [1] and at GPR43 [2] was below 6.00 each time.
Take `Cc1cc(C)cc(CC(=O)N2CCC2(C)C(=O)N(C)Cc2ccc(Br)cc2)c1` (stereo not drawn) [Compound 30, 1-[2-(3,5-Dimethyl-phenyl)-acetyl]-2-methyl-azetidine-2-carboxylic acid (4-bromo-benzyl)-methyl-amide]: the pIC50 at GPR43 [1] and on GPR43 [2] was below 6.00 each time.
For the compound `Cc1cc(C)cc(CC(=O)N2CCC2(C)C(=O)N(C)Cc2ccc(C(C)C)cc2)c1` (stereo not drawn) [Compound 31, 1-[2-(3,5-Dimethyl-phenyl)-acetyl]-2-methyl-azetidine-2-carboxylic acid (4-isopropyl-benzyl)-methyl-amide], the pIC50 at GPR43 [1] was below 6.00; on GPR43 [2] it was 6.00 to 6.30.
For the compound `Cc1ccc2scc(CC(=O)N3CCC3(C)C(=O)N(C)Cc3ccc(Cl)cc3)c2c1` (stereo not drawn) [Compound 93, 1-[2-(5-Methyl-benzo[b]thiophen-3-yl)-acetyl]-2-methyl-azetidine-2-carboxylic acid (4-chloro-benzyl)-methyl-amide], on GPR43 [2], the pIC50 is below 6.00.
